From patent US20250302721A1, “ANTI-AGING EYE CREAM” (L'OREAL, priority 2024, published 2025)

What was measured:
[1] = tested on: Full-thickness reconstructed skin (T-Skin, Episkin); experiment: sGAG release in full-thickness reconstructed skin (sulfated glycosaminoglycan assay kit); format: cell-based; conditions: PX 0.02% and 0.06% in medium, Day 11 through Day 15, medium supernatant, n=3, FIG. 7
Method: Full-thickness reconstructed skin (T-Skin, Episkin) was treated systemically with hydroxypropyl tetrahydropyrantriol (PX, 0.02% and 0.06%) based on the T-skin evaluation test. Tissues are received on medium at day 11 and stored at 37C (95% humidity and 5% CO2) until the end of treatments at […]. The tissue receive medium and medium+hydroxypropyl tetrahydropyrantriol starting from Day 11 through Day 15 (n=3). At Day 15, the medium supernatant was collected to be measured with the sulfated glycosaminoglycan assay kit (ab289846, Abcam). For analysis, sGAG release of the supernatant was quantified based on vendor protocol.

[2] = tested on: Normal adult human epidermal keratinocytes (NHEK-Ad); experiment: keratinocyte proliferation (Ki67 vs DAPI staining); format: cell-based; conditions: 48 hours, FIG. 9 and FIG. 10
Method: Normal adult human epidermal keratinocytes (NHEK-Ad, Cat #00192627, Lonza, Switzerland) were maintained in basal growth medium (KGM Gold keratinocyte Growth Medium Bulletkit, Cat #00192060) until the initiation of the proliferation experiment. The keratinocytes were seeded at a concentration of 1×10^3/24 well and allowed to equilibrate overnight (n=3/group). The cell culture medium was switched with fresh growth containing different concentrations of hydroxypropyl tetrahydropyrantriol (0.005%, 0.017%, and 0.05%), NAM (0.0012%, 0.004%, and 0.012%) alone and combination of hydroxypropyl tetrahydropyrantriol+niacinamide (PX/NAM). The cells were incubated for 48 hours and the keratinocytes were stained against KI67 primary antibody (Anti-Ki67 antibody, Cat #ab15580, Abcam) and goat anti-rabbit IgG Alexa Fluor®488 secondary antibody (Cat #150077, Abcam). The Ki67 and DAPI fluorescent signals were captured using a fluorescent microscope (DMi8, Leica). The Ki67 expression was quantified against total cell nucleus staining (DAPI staining solution, ab228549, Abcam) in order to calculate the number of proliferating cells vs. total number of cells.

| Compound | sGAG release [1] | skin cell proliferation (Ki67 vs total nuclei) ([2]; 0.004% niacinamide) | skin cell proliferation (Ki67 vs total nuclei) ([2]; 0.012% niacinamide) |
| --- | --- | --- | --- |
| CC(O)C[C@@H]1OC[C@@H](O)[C@H](O)[C@H]1O (stereo partly drawn) [hydroxypropyl tetrahydropyrantriol, C-beta-D-xylopyranoside-2-hydroxypropane] | increase sGAG release | – | – |
| NC(=O)c1cccnc1 [niacinamide] | – | significantly increase proliferation | significantly increase proliferation |
